Test results published in PMC4467398, “Preclinical antitumor activity of ST7612AA1: a new oral thiol-based histone deacetylase (HDAC) inhibitor” (Oncotarget, 2014).
Read-outs that look alike come from different tables or passages of the source.

Assays:
Ovarian cancer SKOV-3 = assay: In vitro proliferation assay (sulphorodamine B); assay type: cell-based; conditions: Homo sapiens, SK-OV-3, 72 h, mean ± S.E.M.
NSCLC NCI-H1975 = assay: In vitro proliferation assay (sulphorodamine B); assay type: cell-based; conditions: Homo sapiens, 72 h, mean ± S.E.M.
[1] = test system: cell lines derived from epithelial cancers (lung, breast, colon, ovarian) and from leukemias and lymphomas; assay: In vitro proliferation assay, first broad panel (summary); assay type: cell-based; conditions: first broad panel of human tumor cell lines; read-out: IC50 values, range over the panel
Protocol: (§1) Anti-proliferative activity was first assessed on a panel of cell lines derived from solid tumors and hematological cancers and then on a large panel of cell lines derived from mature B-cell lymphomas. […] Lymphoma cells were seeded in 96-wells tissue culture plates in complete medium and were exposed to increasing concentrations of ST7612AA1 for 48 or 72 h; the anti-proliferative activity was assessed using 3-(4,5-dimethylthiazol-2-yl)-2,5-diphenyltetrazolium bromide (MTT). The drug potency was evaluated by means of the “ALLFIT” computer program and defined as IC50 (drug concentration required for 50% inhibition of cell survival).

[2] = test system: Acute myeloid leukemia MV4;11 xenograft; assay: In vivo xenograft model, oral ST7612AA1; parameters: species or system nude mice; conditions: 60 mg/10 mL/kg oral, Qdx5/wx3w
Protocol: (§2) Experiments on solid tumor and acute leukemia in vivo models were carried out at Sigma-Tau (Rome, Italy) using female athymic nude mice, 5-6 weeks-old (Harlan Laboratories, Udine, IT). Mice were maintained in laminar flow rooms with constant temperature and humidity in according to the NIH guidelines. The following human tumor xenograft models were used for antitumor activity studies: HCT116 derived from colon carcinoma), MV4;11 from acute myeloid leukaemia (AML), SKOV-3 from ovarian carcinoma, and NCI-H1975 from non-small cell lung cancer (NSCLC). Exponentially growing tumor cells were s.c. inoculated (5×10^6/mouse) in the right flank of nude mice. Groups of eight mice/group were employed to assess antitumor activity. MDA-MB436 breast carcinoma (3×10^6 cells/0.1 mL of M199/Matrigel GFR 50:50, vol/vol solution) was inoculated in mammary fat pad (mfp). Drug treatments were started from 3 to 11 days after tumor injection, depending on the tumor growth of the xenografted cancer model. ST7612AA1 was given daily for five days per week (qdx5/w). Tumor growth was followed by measurements of tumor diameters with a Vernier caliper. Tumor volume (TV) was calculated using the formula: TV (mm^3) = [d^2 x D]/2, where d and D are the shortest and the longest diameter, respectively. The efficacy of the drug treatment was assessed as: TV inhibition percentage (TVI%) in treated versus control mice, calculated as: TVI%=100-(mean TV treated/mean TV control x100). When tumors reached a volume of 500-1000 mm^3, mice were sacrificed by cervical dislocation. To examine the possible toxicity of treatment, body weight was recorded throughout the study. BWL% (body weight loss) was calculated as 100 – (mean BWdayx/mean BWday1x100), where day 1 is the first day of treatment and day x is any day after (maximum BWL%). DT as doubling time of control tumors was also evaluated.

[3] = test system: Ovarian cancer SKOV-3 xenograft; assay: In vivo xenograft model, oral ST7612AA1; parameters: species or system nude mice; conditions: 60 mg/10 mL/kg oral, Qdx5/wx4w
Protocol: as §2

[4] = test system: Breast cancer MDA-MB436 xenograft; assay: In vivo xenograft model, oral ST7612AA1; parameters: species or system nude mice; conditions: 60 mg/10 mL/kg oral, Qdx5/wx4w
Protocol: as §2

[5] = test system: Colon cancer HCT-116 xenograft; assay: In vivo xenograft model, oral ST7612AA1; parameters: species or system nude mice; conditions: 60 mg/10 mL/kg oral, Qdx5/wx3w
Protocol: as §2

[6] = test system: NSCLC NCI-H1975 xenograft; assay: In vivo xenograft model, oral ST7612AA1; parameters: species or system nude mice; conditions: 60 mg/10 mL/kg oral, Qdx5/wx2w
Protocol: as §2

[7] = test system: acetylation of alpha-tubulin in NCI-H460 NSCLC cells; assay: Western blot with densitometry, tubulin acetylation; assay type: cell-based, human; conditions: for Acetyl tub./tubulin: NCI-H460, vehicle 0,341
Protocol: For assessing the in vitro effect of ST7612AA1 on acetylation of α-tubulin and histones, NSCLC cells were treated with the test compound at various concentrations (dose-response curve). SAHA 5 μM was used as reference inhibitor. Protein extraction, separation and immunoblotting were performed as previously described. Immunoreactive bands were finally subjected to densitometry analysis by a phosphoimaging system (STORM, Molecular Dynamics), and then the IC50 values were calculated by the “ALLFIT” computer program. The antibodies used are listed in Supplementary Table 2.

Breast cancer MDA-MB231 = assay: In vitro proliferation assay (sulphorodamine B); assay type: cell-based; conditions: Homo sapiens, MDA-MB-231, 72 h, mean ± S.E.M.
[8] = test system: mantle cell lymphoma (MCL) cell lines; assay: In vitro proliferation assay, lymphoma panel (summary); assay type: cell-based; conditions: Homo sapiens
Protocol: as §1

mature B cell lymphomas = assay: as above; assay type: cell-based; conditions: Homo sapiens, different mature B cell lymphomas
Protocol: as §1

[9] = test system: splenic marginal zone lymphoma (SMZL) cell lines; assay: as above; assay type: cell-based; conditions: Homo sapiens
Protocol: as §1

GCB-DLBCL cell lines = assay: as above; assay type: cell-based; conditions: Homo sapiens
Protocol: as §1

ABC-DLBCL cell lines = assay: as above; assay type: cell-based; conditions: Homo sapiens
Protocol: as §1

[10] = test system: Acute myeloid leukemia MV4;11; assay: In vitro proliferation assay (sulphorodamine B); assay type: cell-based; conditions: Homo sapiens, 72 h, mean ± S.E.M.
[11] = test system: Chronic myeloid leukemia K562; assay: In vitro proliferation assay (sulphorodamine B); assay type: cell-based; conditions: Homo sapiens, 72 h, mean ± S.E.M.

Compound: CC(=O)SCCCCC[C@H](NC(=O)[C@H]1CCC(=O)N1)C(=O)Nc1ccccc1 [ST7612AA1]
- IC50 (Ovarian cancer SKOV-3): 380 nM
- IC50 (NSCLC NCI-H1975): 500 nM
- IC50 [1]: 43 to 500 nM
- BWL% max ([2]; maximum body weight loss): 4%
- Lethal toxicity ([2]; mice dead from toxicity/total): 0/8
- BWL% max ([3]; maximum body weight loss): 1%
- Lethal toxicity ([3]; mice dead from toxicity/total): 0/8
- BWL% max ([4]; maximum body weight loss): 4%
- Lethal toxicity ([4]; mice dead from toxicity/total): 0/8
- BWL% max ([5]; maximum body weight loss): 1%
- Lethal toxicity ([5]; mice dead from toxicity/total): 0/8
- BWL% max ([6]; maximum body weight loss): 4%
- Lethal toxicity ([6]; mice dead from toxicity/total): 0/8
- Acetyl tub./tubulin ([7]; 0,2 µM): 1,181
- Acetyl tub./tubulin ([7]; 0,04 µM): 0,649
- Acetyl tub./tubulin ([7]; 1 µM): 2,012
- Acetyl tub./tubulin ([7]; 0,008 µM): 0,588
- IC50 ([7]; Homo sapiens, NCI-H460, 3 h exposure, Western blot densitometry, read-out: IC50 for increasing the acetylation of tubulin): 200 nM
- IC50 (Breast cancer MDA-MB231): 230 nM
- IC50 ([8]; read-out: IC50 range): 248 to 553 nM
- IC50 ([8]; read-out: median IC50): 433 nM
- IC50 (mature B cell lymphomas; read-out: IC50 range): 46 to 2660 nM
- IC50 (mature B cell lymphomas; read-out: median IC50): 375 nM
- IC50 ([9]; read-out: IC50 range): 102 to 257 nM
- IC50 ([9]; read-out: median IC50): 119 nM
- IC50 (GCB-DLBCL cell lines; read-out: IC50 range): 46 to 2660 nM
- IC50 (GCB-DLBCL cell lines; read-out: median IC50): 597 nM
- IC50 (ABC-DLBCL cell lines; read-out: IC50 range): 101 to 805 nM
- IC50 (ABC-DLBCL cell lines; read-out: median IC50): 257 nM
- IC50 [10]: 190 ± 20 nM
- IC50 [11]: 190 ± 20 nM
